Article PMC11198769, “Enhancement of transcription efficiency by TAR-Tat system increases the functional expression of human olfactory receptors” (PLOS ONE, 2024)
pEC50: −log10 of the molar value. Like-named read-outs stand apart in the source and are kept apart here.

Tests used:
Assay in all cases: hOR assay (GloSensor cAMP luciferase), dose-response
Format in all cases: cell-based
OR10H3 = target: T1, OR10H3 (Homo sapiens, UniProt O60404); details: OR10H3, with or without the TAR-Tat system
T1 construct: Lucy tag (N); expressed in transfected cells; host or cells: Flp-In T-REx-293 cells stably expressing RTP1S, Gαolf and Ric8-b
T1 sequence (O60404 1-316): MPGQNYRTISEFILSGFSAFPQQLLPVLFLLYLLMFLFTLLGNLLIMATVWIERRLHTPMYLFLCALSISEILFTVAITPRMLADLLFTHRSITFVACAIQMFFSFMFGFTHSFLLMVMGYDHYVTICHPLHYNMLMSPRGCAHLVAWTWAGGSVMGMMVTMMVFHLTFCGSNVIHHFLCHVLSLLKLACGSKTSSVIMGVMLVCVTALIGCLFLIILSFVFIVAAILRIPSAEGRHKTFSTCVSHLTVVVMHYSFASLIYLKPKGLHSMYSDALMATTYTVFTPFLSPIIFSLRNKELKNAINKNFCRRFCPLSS
Method: (§1) Flp-In T-REx-293 cells stably expressing accessory proteins (RTP1S, Gαolf, and Ric8-b) were established using the Flp-In T-REx system. Accessory proteins-expressing cells were maintained in high-glucose Dulbecco’s modified Eagle medium (Sigma-Aldrich) containing 10% fetal bovine serum (Biowest) and 1% antibiotic–antimycotic (Nacalai tesque) at 37°C with 5% CO2.
(§2) The GloSensor™ Technology (Promega) was used for the luciferase assay of the hOR response. As the negative control, cells that were transfected by the pBApo-CMV neo vector and pHEK293 Ultra Expression Vector I were used as mock cells. hOR/pHEK and hOR/pBApo (50 ng/well) were transfected into the accessory proteins-expressing cell line (40000 cells/well) using Lipofectamine 2000 (Thermo Fisher Scientific) (400 nL/well) along with pGlosensor™-22F cAMP biosensor plasmid (Promega) (50 ng/well) in a 96-well plate. At 28 h posttransfection, the cells were washed with an assay buffer (140 mM NaCl, 10 mM HEPES, 5 mM KCl, 1 mM CaCl2・2H2O, 10 mM D-glucose, pH 7.5) and replaced with the assay buffer (50 μL/well) containing 2% GloSensor cAMP substrate and preincubated for 1 h at 25°C. Then, the assay buffer was added (130 μL/well). After 10 min of equilibration, the luminescence was measured (L0). Odorants diluted in 10% DMSO/assay buffer were treated (20 μL/well). After 9 min, the luminescence was measured (L9min). First, all the L9min values were subtracted by the L0 value (ΔL) and divided by the L0 value (ΔL/L0). The concentration range of the odorants was different for each odorant, but the minimum was 0.01 μM and the maximum was 3 mM. For all hORs, luciferase assays with hOR/pBApo and hOR/pHEK were conducted in the same 96-well plate each time, and luminescence was normalized to a maximum value of 100. Dose–response curve images were graphed using the Graph Pad Prism 9 software (Graph Pad Software).

OR4K5 = target: T2, OR4K5 (Homo sapiens, UniProt Q8NGD3); details: OR4K5, with or without the TAR-Tat system
T2 construct: Lucy tag (N); FLAG (N); Rho tag (N); expressed in transfected cells; host or cells: Flp-In T-REx-293 cells stably expressing RTP1S, Gαolf and Ric8-b
T2 sequence (Q8NGD3 1-323): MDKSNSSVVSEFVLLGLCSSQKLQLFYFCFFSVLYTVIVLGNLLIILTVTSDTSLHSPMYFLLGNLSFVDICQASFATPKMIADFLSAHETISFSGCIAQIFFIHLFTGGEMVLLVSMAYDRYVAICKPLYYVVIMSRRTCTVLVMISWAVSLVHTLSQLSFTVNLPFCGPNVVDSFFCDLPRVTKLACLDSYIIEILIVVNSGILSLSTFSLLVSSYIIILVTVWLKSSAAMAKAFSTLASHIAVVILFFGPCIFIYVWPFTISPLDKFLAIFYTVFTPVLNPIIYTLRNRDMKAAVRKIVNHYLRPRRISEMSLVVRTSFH
Method: as §1, §2

OR52N4 = target: T3, OR52N4 (Homo sapiens, UniProt Q8NGI2); details: OR52N4, with or without the TAR-Tat system
T3 construct: Lucy tag (N); expressed in transfected cells; host or cells: Flp-In T-REx-293 cells stably expressing RTP1S, Gαolf and Ric8-b
T3 sequence (Q8NGI2 1-321): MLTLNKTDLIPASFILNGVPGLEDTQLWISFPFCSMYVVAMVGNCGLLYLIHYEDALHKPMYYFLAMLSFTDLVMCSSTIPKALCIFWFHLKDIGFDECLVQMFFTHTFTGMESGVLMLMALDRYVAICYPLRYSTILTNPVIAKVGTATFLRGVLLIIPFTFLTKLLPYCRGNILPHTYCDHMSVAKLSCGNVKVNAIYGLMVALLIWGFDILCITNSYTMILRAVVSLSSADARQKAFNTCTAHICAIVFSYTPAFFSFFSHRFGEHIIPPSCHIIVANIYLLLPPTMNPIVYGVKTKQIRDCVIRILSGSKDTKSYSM
Method: as §1, §2

OR5M3 = target: T4, OR5M3 (Homo sapiens, UniProt Q8NGP4); details: OR5M3, with or without the TAR-Tat system
T4 construct: Lucy tag (N); FLAG (N); Rho tag (N); expressed in transfected cells; host or cells: Flp-In T-REx-293 cells stably expressing RTP1S, Gαolf and Ric8-b
T4 sequence (Q8NGP4 1-307): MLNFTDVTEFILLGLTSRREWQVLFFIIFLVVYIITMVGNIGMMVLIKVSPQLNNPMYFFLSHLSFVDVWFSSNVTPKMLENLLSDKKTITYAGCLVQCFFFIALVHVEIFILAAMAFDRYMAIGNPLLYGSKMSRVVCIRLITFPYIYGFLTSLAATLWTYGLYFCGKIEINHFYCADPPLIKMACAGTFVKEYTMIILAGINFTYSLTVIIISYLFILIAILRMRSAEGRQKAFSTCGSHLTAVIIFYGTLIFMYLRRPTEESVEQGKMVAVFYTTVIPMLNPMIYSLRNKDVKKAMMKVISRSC
Method: as §1, §2

OR5P3 = target: T5, OR5P3 (Homo sapiens, UniProt Q8WZ94); details: for pEC50: read-out: EC50 of n-hexanal concentration-response relationship
T5 construct: Lucy tag (N); FLAG (N); Rho tag (N); expressed in transfected cells; host or cells: Flp-In T-REx-293 cells stably expressing RTP1S, Gαolf and Ric8-b
T5 sequence (Q8WZ94 1-311): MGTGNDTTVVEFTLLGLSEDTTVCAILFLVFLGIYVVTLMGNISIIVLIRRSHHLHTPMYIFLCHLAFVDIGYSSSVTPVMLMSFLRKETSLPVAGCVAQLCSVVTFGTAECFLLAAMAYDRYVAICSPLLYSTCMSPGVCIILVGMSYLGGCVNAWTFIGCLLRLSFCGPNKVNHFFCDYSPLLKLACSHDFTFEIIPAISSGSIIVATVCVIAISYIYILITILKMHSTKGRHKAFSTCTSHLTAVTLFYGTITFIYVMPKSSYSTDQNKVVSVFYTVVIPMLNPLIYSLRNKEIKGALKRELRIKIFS
Method: as §1, §2

concentration-dependent response to n-hexanal (OR10H3): no concentration-dependent response | concentration-dependent response to n-hexanal (OR4K5): no concentration-dependent response | concentration-dependent response to n-hexanal (OR52N4): no concentration-dependent response | concentration-dependent response to n-hexanal (OR5M3): no concentration-dependent response | pEC50 (OR5P3; OR5P3/pBApo (without TAR-Tat system)): 3.72 | pEC50 (OR5P3; OR5P3/pHEK (with TAR-Tat system)): 3.17 | increase of maximum value of dose-response curve with the TAR-Tat system (OR5P3; OR5P3/pHEK versus OR5P3/pBApo): 4.1 fold
Structure (SMILES): CCCCCC=O [n-hexanal]
concentration-dependent response to n-hexanal (OR5P3; OR5P3, with and without the TAR-Tat system): Concentration-dependent responses were observed
